One may read the IC50 as the concentration at which inhibition is half-maximal.

The source of these data is patent publication US20020052323A1, “Quinoline-(C=O)-(multiple amino acids)-leaving group compounds for pharmaceutical compositions and reagents” (priority 2000, published 2002).

Series [1] relates to WEHI 231 cells. The series is described as follows: TUNEL analysis, inhibitor alone (toxicity control). Type of series: cell-based, murine. The following applies: no ActD. Here is the method: Flow Cytometry measures the percent of the cell population undergoing apoptosis. The effect of the inhibitors is identified as a reduction in the percent of the cell population undergoing apoptosis. Cell Type: WEHI 231 cells, murine immature B cells (suspension) Plate cells at 2×10^5/ml in 10 ml of media (Total 2×10^6 cells) Preincubate caspase inhibitors (Formula I) one hour before inducing apoptosis. […] [table] Process fixed cells for Tunel using the Apo-BRDU kit from Pharmingen (San Diego, Calif.) following the manufacturer's instructions and analyze by flow cytometry.

Series [2] relates to WEHI 231 cells. The series is described as follows: TUNEL analysis of Actinomycin D induced apoptosis, flow cytometry. The following applies: for effective concentration in TUNEL test: blind test by TUNEL method, conclusions; for efficacy in TUNEL test, in words: 10 sequences in a blind test. The format is cell-based, murine. Also noted: key to rank of result in TUNEL analysis: ***: Best result; **: Second best result; *: Third best result. On the procedure: Flow Cytometry measures the percent of the cell population undergoing apoptosis. The effect of the inhibitors is identified as a reduction in the percent of the cell population undergoing apoptosis. Cell Type: WEHI 231 cells, murine immature B cells (suspension) Plate cells at 2×10^5/ml in 10 ml of media (Total 2×10^6 cells) Preincubate caspase inhibitors (Formula I) one hour before inducing apoptosis. […] Actinomycin D (ActD) stock is 1 μg/μl add 10 μl/10 ml)-Treat 4 h Process for Tunel Analysis. (See Table 2 below). […] Cell Processing for Tunel Analysis and Flow Cytometry. Centrifuge cells at 300× g for 5 min and aspirate supernatant. Resuspend cells in 5.0 ml of cold 1× PBS, Spin at 300× g, 5 min. Aspirate supernatant. […] Incubate for 15 min. on ice. […] Aspirate supernatant. […] Aspirate supernatant. […] Aspirate supernatant. Resuspend the cell in 300 μl of cold IX PBS, Transfer to a 1.5 ml tube. […] Store at −20° C. at least 18 hr prior to Tunel Labeling Fixed cells are stable for at least 30 days. Process fixed cells for Tunel using the Apo-BRDU kit from Pharmingen (San Diego, Calif.) following the manufacturer's instructions and analyze by flow cytometry.
(In flow cytometry, cells or beads pass a laser one at a time.)

For series [3], the target named is T1, caspase 1 (Homo sapiens, UniProt P29466).
T1 sequence (P29466 120-297 limits assumed): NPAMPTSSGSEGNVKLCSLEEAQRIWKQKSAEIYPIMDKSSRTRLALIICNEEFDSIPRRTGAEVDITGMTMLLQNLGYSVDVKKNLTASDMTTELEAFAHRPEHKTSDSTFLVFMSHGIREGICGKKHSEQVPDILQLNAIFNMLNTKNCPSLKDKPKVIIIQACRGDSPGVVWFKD
T1 sequence (P29466 317-404 limits assumed): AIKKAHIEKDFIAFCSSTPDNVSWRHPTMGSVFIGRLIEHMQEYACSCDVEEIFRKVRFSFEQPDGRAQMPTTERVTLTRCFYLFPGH
Nature of the series: Caspase inhibition assay, AcYVAD-AFC substrate. Type of series: biochemical. The following applies: from figure, antilog of log concentration; read-out: IC50 caspase 1. Here is the method:
The determination of the IC50/μm was performed according to Gary Johnson, 9401 James Avenue, Suite No. 155, Bloomington, Minn. 55431.
Caspase Inhibition Assay:—Caspases are diluted in caspase buffer, 0.1 M HEPES, 10% sucrose 0.1% CHAPS and 10 mM DTT, pH 7.5. Caspases 1, 3, and 8 are used at a concentration of 144 U/well and caspase 9 is used at 4.8 U/well in a 96 well fluorometric plate.
Inhibitors are initially dissolved in DMSO at 10 mg/ml and further dilutions can be prepared in caspase buffer. The inhibitors are generally tested at concentrations ranging from 50 uM to 0.005 uM. These are usually prepared as 2 fold or 2.5 fold decreasing dilutions. The enzyme approximately 144 U in 120 ul caspase buffer is added to 380 ul caspase buffer containing the appropriate concentration on the inhibitor and incubated on ice for 15 min. The reactants 200 ul are then added to a black fluorimetric plate and incubated in the fluorometer at 37° C. for 30 min.
During the incubation period appropriate coumarin substrates are prepared by dilution in DMSO and caspase buffer to provide a 0.417 mM working stock. AcYVAD-AFC is used for caspase 1, AcDEVD-AFC for caspase 3. AcIETD-AFC for caspase 8 and Ac-LEHD-AFC for capsase 9. Twenty five microliters of the stock solution are added to 200 ul of the caspase and inhibitor test solutions to give a final substrate concentration of 0.046 mM.
The fluorometer is set to 400 nm excitation and 505 nm emission. The enzyme-inhibitor-substrate is allowed to incubate at for an additional twenty min. and the response is read as fluorescence units vs inhibitor concentration. The responses are plotted as percent of the maximum response (response in the absence of inhibitor) for each concentration of the inhibitor. The inhibitory activity for each inhibitor is described as the concentration of inhibitor that produces a 50% inhibition of the maximum response (IC50).

Setting [4] is: 1 μM inhibitor + ActD, WEHI 231, lower = greater inhibitory activity.
Where [5] appears, read: 10 μM inhibitor + ActD, WEHI 231.
The mark [6] stands for this setting: 20 μM inhibitor + ActD, WEHI 231.
Setting [7] is: 30 μM inhibitor + ActD, WEHI 231.
Where [8] appears, read: 40 μM inhibitor + ActD, WEHI 231.
The mark [9] stands for this setting: 50 μM inhibitor + ActD, WEHI 231.
Setting [10] is: 100 μM inhibitor + ActD, WEHI 231.
Setting [11] is: markers in structure designation table.

Peptide text beside a SMILES is read from it. * marks the point of attachment. Cbz = O=C(OCc1ccccc1)*; CH2F = FC*

As for `COC(=O)CC(NC(=O)CCNC(=O)c1ccc2ccccc2n1)C(=O)CF` (stereo not shown) [Inhibitor A^1, Q-βAla-Asp(OMe)-FMK], the “% non-viable cells, inhibitor alone” value in series [1] (20 μM Inh alone) and in series [1] (100 μM Inh alone) was 5% in each case. Besides, the “% non-viable cells” value is recorded as 62% in series [2] (setting [4]); 57% in series [2] (setting [5]); 42% in series [2] (setting [6]); 40% in series [2] (setting [7]); 15% in series [2] (setting [8]); 32% in series [2] (setting [9]). In addition, the “% non-viable cells” value in series [2] (setting [10]) worked out at 9%. Besides, the “effective concentration in TUNEL test” value in series [2] was determined as 40 µM.

For `COC(=O)CC(NC(=O)C(C)NC(=O)C(NC(=O)OCc1ccccc1)C(C)C)C(=O)CF` (stereo not drawn) [Z-VAD-FMK, Benzyloxycarbonyl-Val-Ala-Asp (OMe) fluoromethylketone, reference compound] (Cbz-Val-Ala-Asp(OMe)-CH2F; configuration not given here), the figures for the “% non-viable cells, inhibitor alone” value in series [1] (20 μM Inh alone) and in series [1] (100 μM Inh alone) were 3% and 7%, respectively. Moreover, the “% non-viable cells” value is on record as 33% in series [2] (setting [4]); 64% in series [2] (setting [5]); 17% in series [2] (setting [6]); 19% in series [2] (setting [7]); 12% in series [2] (setting [8]); 8% in series [2] (setting [9]). Moreover, the “% non-viable cells” value in series [2] (setting [10]) was 6%. Besides, the “effective concentration in TUNEL test” value in series [2] is 20 µM.

For `COC(=O)CC(NC(=O)C(C)NC(=O)c1ccc2ccccc2n1)C(=O)CF` (stereo not shown) [Inhibitor D^1, Q-Ala-Asp(OMe)-FMK], the “% non-viable cells, inhibitor alone” value in series [1] (20 μM Inh alone) is given as 6%; in series [1] (100 μM Inh alone) it was 8%. In addition, the “% non-viable cells” value in series [2] (setting [4]) is recorded as 88%; in series [2] (setting [5]) it was 67%; in series [2] (setting [6]), 16%; in series [2] (setting [7]), 2%; in series [2] (setting [8]) it was 1%; in series [2] (setting [9]), 2%. Further, the “% non-viable cells” value in series [2] (setting [10]) was determined as 1%. Further, the “efficacy in TUNEL test, in words” value in series [2] is “most efficacious”. Further, the “rank of result in TUNEL analysis” value is “D^1*” in series [2] (Table 3 markers) and “Q-Ala-Asp(OMe)-FMK*” in series [2] (setting [11]). The “effective concentration in TUNEL test” value in series [2] is 20 µM.

Take hydroxy quinoline-(2-carbonyl)-VD-OPh: the IC50 in series [3] was approximately 38 nM.

With `COC(=O)CC(NC(=O)C(NC(=O)c1ccc2ccccc2n1)C(C)C)C(=O)COc1c(F)cccc1F` (stereo not shown) [Inhibitor I^1, Q-Val-Asp(OMe)—CH2—OPh], the “% non-viable cells, inhibitor alone” value in series [1] (20 μM Inh alone) is reported as 2%; in series [1] (100 μM Inh alone), 53%. For the same molecule, the “% non-viable cells” value in series [2] (setting [4]) turned out to be 88%; in series [2] (setting [5]), 2%; in series [2] (setting [6]), 3%; in series [2] (setting [7]), 2%; in series [2] (setting [8]) it was 3%; in series [2] (setting [9]), 2%. For the same molecule, in series [2] (setting [10]), the “% non-viable cells” value was 2%. In addition, in series [2], the “efficacy in TUNEL test, in words” value is given as “most efficacious”. Also, the “rank of result in TUNEL analysis” value in series [2] (Table 3 markers) is recorded as “I^1***”; in series [2] (setting [11]), “Q-Val-Asp(OMe)—CH2—OPh***”. Besides, in series [2], the “effective concentration in TUNEL test” value came to 10 µM.

As for Q-βAla-Asp(OMe)—CH2—OPh [Inhibitor C^1], the “% non-viable cells, inhibitor alone” value is reported as 3% in series [1] (20 μM Inh alone) and 4% in series [1] (100 μM Inh alone). Besides, the “% non-viable cells” value in series [2] (setting [4]) stood at 88%; in series [2] (setting [5]), 87%; in series [2] (setting [6]), 72%; in series [2] (setting [7]), 71%; in series [2] (setting [8]), 78%; in series [2] (setting [9]), 68%. In series [2] (setting [10]), the “% non-viable cells” value was 3%. Also, the “effective concentration in TUNEL test” value in series [2] stood at 100 µM.

On to HQ-Ala-Asp(OMe)—CH2—OPh [Inhibitor E^1], for which the “% non-viable cells, inhibitor alone” value in series [1] (20 μM Inh alone) and in series [1] (100 μM Inh alone) was 1% in each case. Moreover, the “% non-viable cells” value in series [2] (setting [4]) was 29%; in series [2] (setting [5]), 38%; in series [2] (setting [6]), 13%; in series [2] (setting [7]), 25%; in series [2] (setting [8]), 7%; in series [2] (setting [9]), 12%. Moreover, the “% non-viable cells” value in series [2] (setting [10]) came out at 10%. Further, the “effective concentration in TUNEL test” value in series [2] is 20 µM.
